Experimental data reported in the supplement of paper PMC11451515.

System: SEM cells
Assay: cell viability relative to DMSO control; higher = less cytotoxic
Details: 48 h
In short: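 NOMO1, SEM and P12-Ichikawa leukemia cells spent at least four passages adapting to each medium before use. They were seeded at 500 cells/well (NOMO1, SEM) or 1000 cells/well (P12-Ichikawa) in 5 μl in 1536-well plates and pin-dosed with library compounds in DMSO at 11 threefold steps from 47 μM down to 0.79 nM. After 48 h at 37°C, CellTiter-Glo One luminescence was read. Viability is reported as a percentage of the DMSO wells on each plate, with cell-free wells as background.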

[1] = HPLM + 10% dialyzed FBS, 0.000781 µM
[2] = HPLM + 10% dialyzed FBS, 0.00234 µM
[3] = HPLM + 10% dialyzed FBS, 0.00702 µM
[4] = HPLM + 10% dialyzed FBS, 0.0211 µM
[5] = HPLM + 10% dialyzed FBS, 0.0632 µM
[6] = HPLM + 10% dialyzed FBS, 0.19 µM
[7] = HPLM + 10% dialyzed FBS, 0.569 µM
[8] = HPLM + 10% dialyzed FBS, 1.71 µM
[9] = HPLM + 10% dialyzed FBS, 5.12 µM
[10] = HPLM + 10% dialyzed FBS, 15.4 µM
[11] = HPLM + 10% dialyzed FBS, 46.1 µM
[12] = RPMI 5 mM glucose + 10% FBS, 0.000781 µM
[13] = RPMI 5 mM glucose + 10% FBS, 0.00234 µM
[14] = RPMI 5 mM glucose + 10% FBS, 0.00702 µM
[15] = RPMI 5 mM glucose + 10% FBS, 0.0211 µM
[16] = RPMI 5 mM glucose + 10% FBS, 0.0632 µM
[17] = RPMI 5 mM glucose + 10% FBS, 0.19 µM
[18] = RPMI 5 mM glucose + 10% FBS, 0.569 µM
[19] = RPMI 5 mM glucose + 10% FBS, 1.71 µM
[20] = RPMI 5 mM glucose + 10% FBS, 5.12 µM
[21] = RPMI 5 mM glucose + 10% FBS, 15.4 µM
[22] = RPMI 5 mM glucose + 10% FBS, 46.1 µM
[23] = RPMI 5 mM glucose + 10% dialyzed FBS, 0.000781 µM
[24] = RPMI 5 mM glucose + 10% dialyzed FBS, 0.00234 µM
[25] = RPMI 5 mM glucose + 10% dialyzed FBS, 0.00702 µM
[26] = RPMI 5 mM glucose + 10% dialyzed FBS, 0.0211 µM
[27] = RPMI 5 mM glucose + 10% dialyzed FBS, 0.0632 µM
[28] = RPMI 5 mM glucose + 10% dialyzed FBS, 0.19 µM
[29] = RPMI 5 mM glucose + 10% dialyzed FBS, 0.569 µM
[30] = RPMI 5 mM glucose + 10% dialyzed FBS, 1.71 µM
[31] = RPMI 5 mM glucose + 10% dialyzed FBS, 5.12 µM
[32] = RPMI 5 mM glucose + 10% dialyzed FBS, 15.4 µM
[33] = RPMI 5 mM glucose + 10% dialyzed FBS, 46.1 µM

Row | SMILES | cell viability [1] | cell viability [2] | cell viability [3] | cell viability [4] | cell viability [5] | cell viability [6] | cell viability [7] | cell viability [8] | cell viability [9] | cell viability [10] | cell viability [11] | cell viability [12] | cell viability [13] | cell viability [14] | cell viability [15] | cell viability [16] | cell viability [17] | cell viability [18] | cell viability [19] | cell viability [20] | cell viability [21] | cell viability [22] | cell viability [23] | cell viability [24] | cell viability [25] | cell viability [26] | cell viability [27] | cell viability [28] | cell viability [29] | cell viability [30] | cell viability [31] | cell viability [32] | cell viability [33]
1 | CC(C)C(=O)Nc1ccc([N+](=O)[O-])c(C(F)(F)F)c1 | 103% | 112% | 118% | 129% | 122% | 136% | 131% | 134% | 138% | 130% | 130% | 118% | 115% | 119% | 136% | 124% | 140% | 135% | 128% | 123% | 116% | 121% | 125% | 119% | 133% | 144% | 127% | 146% | 142% | 157% | 146% | 139% | 122%
2 | Cc1cnc(-c2cc(N3CCN(C(=O)CC[S+](C)(=O)[O-])CC3)ncc2Cl)c(C)c1 | 103% | 102% | 118% | 119% | 128% | 122% | 124% | 130% | 127% | 125% | 141% | 115% | 151% | 119% | 116% | 118% | 136% | 135% | 140% | 140% | 142% | 136% | 112% | 115% | 107% | 133% | 125% | 132% | 124% | 141% | 155% | 143% | 139%
3 | C/C=C1\C2C=C(C)CC1(N)c1ccc(=O)[nH]c1C2 (configuration not stated) | 103% | 108% | 120% | 109% | 28.9% | 94.2% | 98% | 106% | 102% | 68.1% | 98.7% | 105% | 113% | 109% | 99.6% | 18.2% | 103% | 106% | 114% | 104% | 88% | 96.4% | 103% | 106% | 114% | 113% | 39.9% | 115% | 114% | 108% | 104% | 85.6% | 98.2%
4 | COc1ccc(-c2ccc3c(N4CCOC[C@@H]4C)nc(N4CCOC[C@@H]4C)nc3n2)cc1CO | 101% | 58.2% | 96.6% | 92.1% | 87.3% | 62.2% | 60.3% | 53.4% | 50.9% | 33% | 4.42% | 110% | 52% | 118% | 101% | 89.7% | 51% | 67.5% | 55.8% | 36.5% | 12.6% | 4.05% | 105% | 53% | 110% | 88.9% | 82.2% | 64.7% | 67.4% | 56.2% | 45.7% | 34.3% | 3.94%
